# In patent US12492163B2, “9H-fluorene derivatives or their pharmaceutically acceptable salts” (priority 2020, dated 2025):
# Key:
# [1] = tested on: C57BL/6J mice; experiment: Barnes maze test (scopolamine); type: in vivo, Mus musculus
# Procedure: The research was conducted at the Department of Pharmacodynamics, Faculty of Pharmacy, Jagiellonian University in Krakow. All procedures were approved by the 1st and 2nd Local Ethics Committee for Animal Experiments in Krakow (consent no. 53/2017 and 250/2019) and were performed in accordance with the applicable European Union regulation (86/609/EEC). Males of two different strains of domestic mice (Mus musculus) were used in the study: Albino Swiss CD-1 (body weight approx. 20-24 g, age approx. 6 weeks) and C57BL/6J mice (body weight approx. 18-22 g, age approx. 6 weeks). The CD-1 strain was used for the passive avoidance, spontaneous mobility and rotating rod tests, while the C57BL/6J mice were used for the Morris water maze and the Barnes' maze. The animals were kept in standard, appropriately sized cages, divided into groups with a maximum of 10 animals. The animals in the study groups in the learning phase were intraperitoneally administered the test compound 1 h before the start of the experiments (doses in the preliminary test, i.e. in the passive avoidance test: 10, 30 and 60 mg/kg), and 30 minutes later, 1 mg/kg of scopolamine subcutaneously. Two control groups were used in the tests to assess the procognitive activity of JT-3—one of them received saline and the other saline and scopolamine.
# The test is used to study spatial (hippocampal-dependent) memory. […] Barnes' maze has 18 escape holes (escape points) evenly spaced on the outer edges of the circular platform, and only one of them leads to so-called escape box, where the mouse can hide. For the first four days (acquisition phase), the mouse was placed in the center of the maze in the starting chamber, the light was turned on, then the chamber was raised and time was started. The number of errors was also counted, i.e. how many holes the mouse approached before approaching the right hole for the first time, and the total number of errors until it entered the escape box. […] Each mouse was subjected to four trials a day.
# On the fifth day, which is the recall phase (without administration of compounds), the box was removed from the escape hole and the total errors, the number of errors made up to the first approach of the mouse to the hole where the escape box was previously found and the latency to the first approach of the mouse were counted for 90 seconds to that hole were counted. The number of approaches to this hole and the time the mouse spent on it were also counted. On the twelfth day—“proper test” (without administration of compounds), the effect of the compound on long-term memory was assessed. The experiment was as in the recall phase; the same parameters were measured. Between the fifth and twelfth days, the animals were kept in home cages.
# [2] = tested on: ICR-CD1 mice; experiment: Acute toxicity study in mice; type: in vivo, Mus musculus; parameters: key to Tremor / Convulsions / Hyper/Hypoventilation / Drooping eyelids / General exhaustion: mild (+); moderate (++); severe (+++)
# Procedure: The research was carried out at the Department of Toxicology and Military Pharmacy, Faculty of Military Health Sciences in Hradec Kralove, Defense University in Brno in the Czech Republic, at the Biomedical Research Center and at the Department of Clinical Biochemistry of the University Hospital Hradec Kralove in the Czech Republic. All procedures were carried out under the supervision of the Ethics Committee of the Faculty of Military Health Sciences (No. 20/19; MO 215611/2019-684800). Male and female ICR-CD1 strain of domestic mice (Mus musculus) (body weight approx. 20-25 g) were used in the research. The animals were kept in standard, appropriately sized cages, divided into groups of a maximum of 8 animals. The animals in the test groups were administered the test compound intraperitoneally (doses in the acute toxicity study: 10, 20, 40 and 60 mg/kg, dose in the study of pharmacokinetic parameters 10 mg/kg). Control groups received 1% Tween 80.
# The study assesses the toxicity profile of the compound by observation of emerging adverse effects, biochemical parameters analysis and histopathological analysis, and determines the maximum tolerated dose (MTD). Mice were randomly assigned to experimental groups consisting of two males and two females. […] Toxic symptoms were classified as in the previous published study [J. Misik]. Weight loss or reduction in food consumption was assessed according to the FELAS classification [K. L. Chapman] for the first two hours, and then periodically for the next 46 hours. All 48-hour survivors were euthanized. Blood was collected for biochemical analysis and selected organs (kidneys and liver) were collected for histopathological examination. Venous blood was collected in heparinized tubes. Plasma was then separated (3000×g, 5 min, 4° C.) using a centrifuge. The concentration of urea and creatinine as well as the activity of alanine aminotransferase (ALT), aspartate aminotransferase (AST), alkaline phosphatase (ALP), amylase and lactate dehydrogenase (LDH) were determined in an accredited biochemical laboratory. The harvested organs: liver and kidneys were used for standard histopathological examination. Organs were fixed with 10% neutral buffered formalin, processed for histology, and stained with hematoxylin and eosin as in a previous published study [J. Pejchal]. Histopathological changes were assessed microscopically.
# [3] = target: mGAT4 (Mus musculus (Mouse), UniProt P31650); experiment: [3H]GABA uptake inhibition, mGAT4 in HEK293 cells; type: cell-based; settings: GABA reuptake
# mGAT4, sequence (P31650 whole entry): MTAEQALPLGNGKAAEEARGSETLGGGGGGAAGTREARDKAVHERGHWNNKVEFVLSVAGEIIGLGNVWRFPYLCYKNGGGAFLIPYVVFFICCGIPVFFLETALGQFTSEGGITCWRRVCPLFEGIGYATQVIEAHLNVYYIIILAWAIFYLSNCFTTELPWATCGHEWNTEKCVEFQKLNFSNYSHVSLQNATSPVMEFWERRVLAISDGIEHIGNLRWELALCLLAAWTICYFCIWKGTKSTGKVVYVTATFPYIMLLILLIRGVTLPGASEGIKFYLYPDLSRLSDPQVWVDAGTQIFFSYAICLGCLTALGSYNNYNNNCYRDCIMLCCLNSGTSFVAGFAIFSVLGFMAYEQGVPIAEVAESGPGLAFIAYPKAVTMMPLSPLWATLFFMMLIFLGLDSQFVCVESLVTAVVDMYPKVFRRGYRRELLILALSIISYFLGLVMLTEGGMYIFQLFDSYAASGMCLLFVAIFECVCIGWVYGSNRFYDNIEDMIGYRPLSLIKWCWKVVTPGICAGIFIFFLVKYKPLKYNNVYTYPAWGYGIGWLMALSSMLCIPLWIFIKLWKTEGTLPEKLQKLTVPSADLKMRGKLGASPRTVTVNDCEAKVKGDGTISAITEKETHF
# Procedure: Exemplary compounds according to the invention were screened at the Ludwig-Maximilian University of Munich to determine the inhibitory ability towards four mouse GAT transporters (mGAT1-mGAT4). […] The biological material was stably transfected human embryonic kidney HEK293 cells, expressing genes to the appropriate transporters. The generated radioactivity was measured with a liquid scintillation counter. […] These determinations were made according to the procedure described in detail in A. Kragler, G. Höfner, K. T. Wanner, Novel parent structures for inhibitors of the murine GABA transporters mGAT3 and mGAT4, Eur. J. Pharmacol. 519 (2005) 43-47.
# [4] = 10 mg/kg (MTD) i.p., mouse Female1
# [5] = 10 mg/kg (MTD) i.p., mouse Female2
# [6] = 10 mg/kg (MTD) i.p., mouse Male1
# [7] = 10 mg/kg (MTD) i.p., mouse Male2
# [8] = plasma, 10 mg/kg (MTD) i.p., 48 h
structure (smiles),measurement,setting,value
"O[C@H](CNCC1CC1)[C@H](Cc1ccccc1)NC1c2ccccc2-c2ccccc21 [JT-3, (2R,3S)-3-((9H-fluoren-9-yl)amino)-1-((cyclopropylmethyl)amino)-4-phenylbutan-2-ol]","number of errors made before finding the escape site, acquisition phase","[1]; 10 mg/kg i.p., days 1-4",no statistically significant differences
same,"latency to find the escape site, acquisition phase vs scopolamine control","[1]; 10 mg/kg i.p., fourth day of the test, p<0.05",Statistically significant differences
same,recall phase activity,"[1]; fifth day, 10 mg/kg i.p. on days 1-4",not active
same,number of errors made to find the escape zone vs scopolamine control,"[1]; twelfth day, 10 mg/kg i.p. on days 1-4, p<0.0001",the reduction in errors was also statistically significant
same,latency to find the escape zone vs scopolamine control,"[1]; twelfth day, 10 mg/kg i.p. on days 1-4, p<0.05",the reduction in latency was also statistically significant
same,"changes in biochemical parameters (urea, creatinine, liver enzymes, ALP, amylase, LDH) compared to control",[2]; 10 mg/kg (MTD) i.p.,no statistically significant changes
same,"histopathological changes (liver, kidneys)",[2]; 10 mg/kg (MTD) i.p.,"only sporadic infiltration of neutrophils into the liver and adipose tissue was observed in two animals, without any signs of liver or kidney damage"
same,Body weight change at 24 h (%),[2]; [4],−3.9%
same,Body weight change at 48 h (%),[2]; [4],−0.4%
same,Drooping eyelids,[2]; [4],+
same,General exhaustion,[2]; [4],+
same,Hyper/Hypoventilation,[2]; [4],+
same,Tremor,[2]; [4],+
same,Body weight change at 24 h (%),[2]; [5],−5.8%
same,Body weight change at 48 h (%),[2]; [5],−5.2%
same,Convulsions,[2]; [5],+
same,Drooping eyelids,[2]; [5],+
same,General exhaustion,[2]; [5],+
same,Hyper/Hypoventilation,[2]; [5],+
same,Tremor,[2]; [5],++
same,Body weight change at 24 h (%),[2]; [6],−1.3%
same,Body weight change at 48 h (%),[2]; [6],−2.4%
same,General exhaustion,[2]; [6],+
same,Hyper/Hypoventilation,[2]; [6],+
same,Tremor,[2]; [6],+
same,Body weight change at 24 h (%),[2]; [7],−1.2%
same,Body weight change at 48 h (%),[2]; [7],−0.7%
same,General exhaustion,[2]; [7],+
same,Hyper/Hypoventilation,[2]; [7],+
same,Tremor,[2]; [7],+
same,maximum tolerated dose (MTD),"[2]; mice, i.p., doses tested 10, 20, 40 and 60 mg/kg",10 mg/kg
same,ALP,[2]; [8],68.4 ± 27.2 U/L
same,ALT,[2]; [8],29.0 ± 6.5 U/L
same,AST,[2]; [8],56.8 ± 6.6 U/L
same,Amylase,[2]; [8],2955 ± 501 U/L
same,LDH,[2]; [8],275 ± 94 U/L
same,Urea,[2]; [8],33.8 ± 8.2 mg/dL
same,pIC50 (+/−SEM) mGAT4,[3],5.11 +/− 0.02
